Counter-ions that a name gives are not always drawn.
Each compound was assayed on LP-1 cell line (assay: Cell-based pERK ELISA method, LP-1 cells). Conditions: Homo sapiens, LP-1, read-out: IC50 less than 1 μM or at least 50% inhibition at a concentration of 1 μM, LP-1 pERK ELISA.
Protocol: LP-1 or JIM-1 multiple myeloma cells were seeded in 96 well plates at 1×10^6 cells/ml in 200 ul per well in serum free media. […] Cells were incubated for 16 h at 37° C. prior to the addition of a test compound for 30 minutes. Test compounds were administered at a 0.1% final DMSO concentration. […] ELISA plates and standards were prepared according o the standard DuoSet protocols and the relative amounts of pERK to total ERK in each sample calculated according to the standard curve.
In particular, compounds of the invention were tested against the LP-1 cell line (DSMZ no.: ACC 41) derived from human multiple myeloma.

| Structure (SMILES) | IC50 [µM] |
| --- | --- |
| CCc1nnc(-c2ccn3c(-c4cccc(NC(=O)NCC(F)(F)F)c4)cnc3c2)s1 [Example 260, 1-{3-[7-(5-Ethyl-[1,3,4]thiadiazol-2-yl)-imidazo[1,2-a]pyridin-3-yl]-phenyl}-3-(2,2,2-trifluoro-ethyl)-urea] | < 1 |
| Cc1ccc(-c2cnc3c(-c4cccc(NC(=O)NCC(F)(F)F)c4)cnn3c2)o1 [Example 180] | < 1 |
| CCNC(=O)Nc1cccc(-c2cnc3cc(-c4cnn(C)c4)ccn23)c1 [Example 94, 1-Ethyl-3-{3-[7-(1-methyl-1H-pyrazol-4-yl)-imidazo[1,2-a]pyridin-3-yl]-phenyl}-urea] | < 1 |
| O=C1CN(Cc2cccc(-c3ccn4c(-c5cccc(NC(=O)NCC(F)(F)F)c5)cnc4c3)c2)CCN1 [Example 206, 1-(3-{7-[3-(3-Oxo-piperazin-1-ylmethyl)-phenyl]-imidazo[1,2-a]pyridin-3-yl}-phenyl)-3-(2,2,2-trifluoro-ethyl)-urea] | < 1 |
| CC(=O)Nc1cccc(-c2cnc3cc(-c4ccc(OCC(O)CO)cc4)ccn23)c1 (stereo not shown) [Example 65, N-(3-{7-[4-(2,3-Dihydroxy-propoxy)-phenyl]-imidazo[1,2-a]pyridin-3-yl}-phenyl)-acetamide] | < 1 |
| CCNC(=O)Nc1cncc(-c2cnn3cc(-c4ccc(F)cc4)cnc23)c1 [Example 197, 1-Ethyl-3-{5-[6-(4-fluoro-phenyl)-pyrazolo[1,5-a]pyrimidin-3-yl]-pyridin-3-yl}-urea] | < 1 |
| CNC(=O)/C=C/c1ccn2c(-c3cccc(NC(=O)NCC(F)(F)F)c3)cnc2c1 [Example 344, (E)-N-Methyl-3-(3-{3-[3-(2,2,2-trifluoro-ethyl)-ureido]-phenyl}-imidazo[1,2-a]pyridin-7-yl)-acrylamide] | < 1 |
| CC(=O)Nc1cccc(-c2cnc3cc(-c4ccccc4)ccn23)c1 [Example 2, N-[3-(7-Phenyl-imidazo[1,2-a]pyridin-3-yl)-phenyl]-acetamide hydro-chloride salt] | < 1 |
| COc1cc(NC(=O)NCC(F)(F)F)cc(-c2cnc3cc(-c4ccc(F)cc4)ccn23)c1 [Example 217, 1-{3-[7-(4-Fluoro-phenyl)-imidazo[1,2-a]pyridin-3-yl]-5-methoxy-phenyl}-3-(2,2,2-trifluoro-ethyl)-urea] | < 1 |
| CCNC(=O)Nc1cccc(-c2cnn3cc(-c4ccc(N)nc4)cnc23)c1 [Example 114, 1-{3-[6-(6-Amino-pyridin-3-yl)-pyrazolo[1,5-a]pyrimidin-3-yl]-phenyl}-3-ethyl-urea hydrochloride salt] | < 1 |
| Cn1cc(-c2cnc3c(-c4cncc(NC(=O)NCC(F)(F)F)c4)cnn3c2)cn1 [Example 349, 1-{5-[6-(1-Methyl-1H-pyrazol-4-yl)-pyrazolo[1,5-a]pyrimidin-3-yl]-pyridin-3-yl}-3-(2,2,2-trifluoro-ethyl)-urea] | < 1 |
| O=C(NCC(F)(F)F)Nc1ccc(F)c(-c2cnc3cc(-c4ccc(F)cc4)ccn23)c1 [Example 253, 1-{4-Fluoro-3-[7-(4-fluoro-phenyl)-imidazo[1,2-a]pyridin-3-yl]-phenyl}-3-(2,2,2-trifluoro-ethyl)-urea] | < 1 |
| CCNC(=O)Nc1cccc(-c2cnc3cc(-c4cccc(CN5CCN(C)CC5)c4)ccn23)c1 [Example 227] | < 1 |
| CCNC(=O)Nc1cccc(-c2cnc3cc(-c4ccc(C(C)(C)C(=O)OC)cc4)ccn23)c1 [Example 39, 2-(4-{3-[3-(3-Ethyl-ureido)-phenyl]-imidazo[1,2-a]pyridin-7-yl}-phenyl)-2-methyl-propionic acid methyl ester] | < 1 |
| CC(=O)Nc1cccc(-c2cnc3cc(-c4ccncc4)ccn23)c1 [Example 6, N-[3-(7-Pyridin-4-yl-imidazo[1,2-a]pyridin-3-yl)-phenyl]-acetamide] | < 1 |
| COc1ccc(-c2ccn3c(-c4cccc(NC(=O)NCC(F)(F)F)c4)cnc3c2)cc1 [Example 271, 1-{3-[7-(4-Methoxy-phenyl)-imidazo[1,2-a]pyridin-3-yl]-phenyl}-3-(2,2,2-trifluoro-ethyl)-urea] | < 1 |
| O=C(NCC(F)(F)F)Nc1cccc(-c2cnc3cc(-c4ccnc(OC5CCOCC5)c4)ccn23)c1 [Example 212, 1-(3-{7-[2-(Tetrahydro-pyran-4-yloxy)-pyridin-4-yl]-imidazo[1,2-a]pyridin-3-yl}-phenyl)-3-(2,2,2-trifluoro-ethyl)-urea] | < 1 |
| CC(=O)Nc1cccc(-c2cnc3cc(-c4cccc(CC(=O)O)c4)ccn23)c1 [Example 11, {3-[3-(3-Acetylamino-phenyl)-imidazo[1,2-a]pyridin-7-yl]-phenyl}-acetic acid] | < 1 |

| Structure (SMILES) | IC50 [µM] |
| --- | --- |
| CCNC(=O)Nc1cccc(-c2cnc3cc(-c4cccc(C(=O)N5CCOCC5)c4)ccn23)c1 [Example 36, 1-Ethyl-3-(3-{7-[3-(morpholine-4-carbonyl)-phenyl]-imidazo[1,2-a]pyridin-3-yl}-phenyl)-urea] | < 1 |
| COc1cc(-c2ccn3c(-c4cccc(NC(=O)NCC(F)(F)F)c4)cnc3c2)ccc1F [Example 142, 1-{3-[7-(4-Fluoro-3-methoxy-phenyl)-imidazo[1,2-a]pyridin-3-yl]-phenyl}-3-(2,2,2-trifluoro-ethyl)-urea Hydrochloride] | < 1 |
| N#Cc1cc(NC(=O)NCC(F)(F)F)cc(-c2cnc3cc(-c4ccc(F)cc4)ccn23)c1 [Example 214, 1-{3-Cyano-5-[7-(4-fluoro-phenyl)-imidazo[1,2-a]pyridin-3-yl]-phenyl}-3-(2,2,2-trifluoro-ethyl)-urea] | < 1 |
| Cn1cc(-c2ccn3c(-c4cccc(NC(=O)NCC(F)(F)F)c4)cnc3c2)cn1 [Example 128, 1-{3-[7-(1-Methyl-1H-pyrazol-4-yl)-imidazo[1,2-a]pyridin-3-yl]-phenyl}-3-(2,2,2-trifluoro-ethyl)-urea formate] | < 1 |
| Cc1cc2ncc(-c3cccc(NC(=O)NCC(F)(F)F)c3)n2cc1Cl [Example 346, 1-[3-(6-Chloro-7-methyl-imidazo[1,2-a]pyridin-3-yl)-phenyl]-3-(2,2,2-trifluoro-ethyl)-urea] | < 1 |
| CS(=O)(=O)c1cccc(-c2ccn3c(-c4cccc(NC(=O)NCC(F)(F)F)c4)cnc3c2)c1 [Example 251, 1-{3-[7-(3-Methane-sulfonyl-phenyl)-imidazo[1,2-a]pyridin-3-yl]-phenyl}-3-(2,2,2-trifluoro-ethyl)-urea formate] | < 1 |
| COc1ccn2c(-c3cccc(NC(=O)NCC(F)(F)F)c3)cnc2c1 [Example 336, 1-[3-(7-Methoxy-imidazo[1,2-a]pyridin-3-yl)-phenyl]-3-(2,2,2-trifluoro-ethyl)-urea Formate] | < 1 |
| O=C(NCC(F)(F)F)Nc1cccc(-c2cnc3cc(-c4cccc(C(=O)N5CCC5)c4)ccn23)c1 [Example 264, 1-(3-{7-[3- (Azetidine 1-carbonyl)-phenyl]-imidazo[1,2-a]pyridin-3-yl}-phenyl)-3-(2,2,2-trifluoro-ethyl)-urea] | < 1 |
| CCNC(=O)Nc1cccc(-c2cnc3cc(-c4ccc(C(=O)N5CCN(C)CC5)cc4)ccn23)c1 [Example 81, 1-Ethyl-3-(3-{7-[4-(4-methyl-piperazine-1-carbonyl)-phenyl]-imidazo[1,2-a]pyridin-3-yl}-phenyl)-urea] | < 1 |
| Cn1c(-c2ccn3c(-c4cccc(NC(=O)NCC(F)(F)F)c4)cnc3c2)n[nH]c1=S [Example 332, 1-{3-[7-(4-Methyl-5-thioxo-4,5-dihydro-1H-[1,2,4]triazol-3-yl)-imidazo[1,2-a]pyridin-3-yl]-phenyl}-3-(2,2,2-trifluoro-ethyl)-urea] | < 1 |
| O=C(NCC(F)(F)F)Nc1cccc(-c2cnc3cc(-c4ccccc4)ccn23)c1 [Example 149, 1-[3-(7-Phenyl-imidazo[1,2-a]pyridin-3-yl)-phenyl]-3-(2,2,2-trifluoro-ethyl)-urea Hydrochloride] | < 1 |
| CC(=O)Nc1cccc(-c2cnc3cc(-c4ccc(N5CCOCC5)cc4)ccn23)c1 [Example 5, N-{3-[7-(4-Morpholin-4-yl-phenyl)-imidazo[1,2-a]pyridin-3-yl]-phenyl}-acetamide] | < 1 |
| CCNC(=O)Nc1cccc(-c2cnc3cc(-c4ccc(NCCN5CCOCC5)nc4)ccn23)c1 [Example 109, 1-Ethyl-3-(3-{7-[6-(2-morpholin-4-yl-ethylamino)-pyridin-3-yl]-imidazo[1,2-a]pyridin-3-yl}-phenyl)-urea hydro-chloride salt] | < 1 |
| CCNC(=O)Nc1cccc(-c2cnc3cc(-c4ccc(N5CCNCC5)cc4)ccn23)c1 [Example 57, 1-Ethyl-3-{3-[7-(4-piperazin-1-yl-phenyl)-imidazo[1,2-a]pyridin-3-yl]-phenyl}-urea hydro-chloride salt] | < 1 |
| CC(=O)Nc1cccc(-c2cnc3cc(-c4ccc(F)cc4)ccn23)c1 [Example 7, N-{3-[7-(4-Fluoro-phenyl)-imidazo[1,2-a]pyridin-3-yl]-phenyl}-acetamide] | < 1 |
| CCNC(=O)Nc1cccc(-c2cnc3cc(-c4cccc(C(=O)N5CCN(C)CC5)c4)ccn23)c1 [Example 79, 1-Ethyl-3-(3-{7-[3-(4-methyl-piperazine-1-carbonyl)-phenyl]-imidazo[1,2-a]pyridin-3-yl}-phenyl)-urea] | < 1 |
| CCS(=O)(=O)N1CCN(c2ccn3c(-c4cccc(NC(=O)NCC(F)(F)F)c4)cnc3c2)CC1 [Example 177, 1-{3-[7-(4-Ethanesulfonyl-piperazin-1-yl)-imidazo[1,2-a]pyridin-3-yl]-phenyl}-3-(2,2,2-trifluoro-ethyl)-urea hydrochloride salt] | < 1 |

Same assay, conditions: Homo sapiens, LP-1, read-out: LP-1 pERK ELISA (μM)

| Structure (SMILES) | IC50 [µM] |
| --- | --- |
| Cc1nnc(-c2ccn3c(-c4cccc(NC(=O)NCC(F)(F)F)c4)cnc3c2)s1 [Example 310, 1-{3-[7-(5-Methyl-[1,3,4]-thiadiazol-2-yl)-imidazo[1,2-a]pyridin-3-yl]-phenyl}-3-(2,2,2-trifluoro-ethyl)-urea] | 0.0042 |
| CC#Cc1ccn2c(-c3cccc(NC(=O)NCC(F)(F)F)c3)cnc2c1 [Example 396, 1-[3-(7-Prop-1-ynyl-imidazo[1,2-a]pyridin-3-yl)-phenyl]-3-(2,2,2-trifluoro-ethyl)-urea] | 0.065 |
